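These data come from cells grown in 96-well plates and exposed to compound for 48 hours at five concentrations. At the GI50, growth is halved.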 The source made the active and inactive calls. Rule as the data show it: active = GI50 up to about 1.1 µM and inactive = higher.

Test systems include OVCAR-8; NCI-H226; Hs-578T; T47D; SF-268; SK-MEL-28; SNB-75; SNB-19; OVCAR-4; COLO 205; UACC-257; LOX IMVI; Malme-3M; HCT-15; MOLT-4; SN12C; SF-295; UO-31; U-251; DU-145.
Assay in all cases: NCI tumour cell line growth inhibition, 48 h

With `c1ccc(C2=NCCN2)c(C2=NCCN2)c1`, the GI50 in the assay with OVCAR-8, in the assay with NCI-H226, in the assay on Hs-578T, in the assay on T47D, in the assay on SF-268 and with SK-MEL-28 was > 100 µM (inactive) each time. Besides, the GI50 in the assay with SNB-75, in the assay on SNB-19, with OVCAR-4, in the assay with COLO 205, in the assay with UACC-257 and with LOX IMVI was > 100 µM (inactive) each time. Besides, the GI50 is > 100 µM (inactive) in the assay with Malme-3M; 44.1 µM in the assay with HCT-15; > 100 µM (inactive) with MOLT-4; > 100 µM (inactive) with SN12C; > 100 µM (inactive) in the assay on SF-295; > 100 µM (inactive) in the assay with UO-31. Further, the GI50 in the assay with U-251 and with DU-145 was > 100 µM (inactive) in each case.
With `CN(C)CCNc1ccc2nnn3c4ccc(O)cc4c(=O)c1c23`, the GI50 with OVCAR-8 is 1.73 µM (inactive); in the assay on NCI-H226, 6.31 µM (inactive); in the assay with Hs-578T it was 2.03 µM (inactive); in the assay on T47D it was 11.1 µM (inactive); in the assay with SF-268 it was 5.38 µM (inactive); with SK-MEL-28 it was 10.9 µM (inactive). Besides, the GI50 in the assay with SNB-75 was 9.57 µM (inactive); in the assay on SNB-19, 7.89 µM (inactive); in the assay with OVCAR-4, 2.08 µM (inactive); in the assay with COLO 205, 3.39 µM (inactive); with UACC-257, 9.71 µM (inactive); with LOX IMVI it was 1.5 µM (inactive). Moreover, the GI50 with Malme-3M was 5.05 µM (inactive); in the assay with HCT-15, 1.29 µM; in the assay with MOLT-4, 0.168 µM (active); in the assay on SN12C, 1.85 µM (inactive); with SF-295 it was 2.54 µM (inactive); in the assay on UO-31 it was 2.22 µM (inactive). The values for the GI50 in the assay on U-251 and in the assay with DU-145 were 2.1 µM (inactive) and 6.31 µM (inactive), respectively.
For the molecule `CC(C)=CCC[C@](C)(O)[C@H]1CC[C@]2(C)[C@@H]1[C@H](O)C[C@@H]1[C@@]3(C)CC[C@H](O[C@@H]4O[C@H](CO)[C@@H](O)[C@H](O)[C@H]4O)C(C)(C)[C@@H]3CC[C@]12C` [GINSENOSIDE RH2], the GI50 is 17.9 µM (inactive) in the assay with OVCAR-8; 17.6 µM (inactive) in the assay on NCI-H226; 21.9 µM (inactive) in the assay with Hs-578T; 18.2 µM (inactive) in the assay with T47D; 15.8 µM (inactive) with SF-268; 19.9 µM (inactive) in the assay on SK-MEL-28. Besides, the GI50 in the assay on SNB-75 was 19.1 µM (inactive); in the assay on SNB-19 it was 20 µM (inactive); in the assay with OVCAR-4, 21.5 µM (inactive); with COLO 205, 19.5 µM (inactive); in the assay on UACC-257 it was 20.9 µM (inactive); with LOX IMVI it was 29 µM (inactive). The GI50 in the assay with Malme-3M is 18.4 µM (inactive); with HCT-15, 17.5 µM; in the assay on MOLT-4, 17.1 µM (inactive); in the assay with SN12C it was 16.7 µM (inactive); with SF-295 it was 23 µM (inactive); with UO-31, 17.4 µM (inactive). For the same molecule, the results for the GI50 with U-251 and in the assay with DU-145 were 17.7 µM (inactive) and 19.5 µM (inactive), respectively.
`O=C(CCBr)N1CCN(C(=O)CCBr)CC1` [PIPOBROMAN]: the GI50 was 86.3 µM (inactive) in the assay with OVCAR-8; 84.9 µM (inactive) with NCI-H226; 190 µM (inactive) in the assay with Hs-578T; 106 µM (inactive) in the assay on T47D; 39.3 µM (inactive) in the assay on SF-268; 99.8 µM (inactive) with SK-MEL-28. In addition, the GI50 was 71.4 µM (inactive) with SNB-75; 80.2 µM (inactive) in the assay on SNB-19; 86.9 µM (inactive) in the assay with OVCAR-4; 92.3 µM (inactive) in the assay with COLO 205; 91 µM (inactive) with UACC-257; 48.3 µM (inactive) in the assay with LOX IMVI. In addition, the GI50 in the assay on Malme-3M is 101 µM (inactive); in the assay on HCT-15, 83.8 µM; with MOLT-4 it was 13.4 µM (inactive); in the assay on SN12C it was 42.6 µM (inactive); in the assay on SF-295 it was 57.3 µM (inactive); with UO-31, 120 µM (inactive). Further, the GI50 was 55 µM (inactive) in the assay with U-251 and 64.6 µM (inactive) with DU-145.

(Values after ChEMBL document CHEMBL1201862, “PubChem BioAssay data set” (2004).)
